Test results taken from EP0621773B1, “FORMULATION AND USE OF CAROTENOIDS IN TREATMENT OF CANCER” (BOARD OF REGENTS THE UNIVERSITY OF TEXAS SYSTEM, priority 1992, dated 1993).

Columns and labels:
[1] = tested on: human monocytic cell line THP-1; test: Cell growth inhibition, 72 hr, 96 well microtiter plate; type: cell-based; details: concentrations of less than 1 µg RA/ml, 72 hr at 37°C
Procedure: (§1) Cells of the human monocytic cell line THP-1 and of the human histiocytic cell line U-937 were inoculated at about 20,000 cells per well in aliquots of eucaryotic cell culture medium contained in wells of a 96 well microtiter plate. The medium in various wells contained different amount of free RA or L-RA (DMPC:DMPG 7:3). The cells were incubated for 72 hr at 37°C and cell growth determined and compared to that of controls without any form of retinoic acid. […] At concentrations of less than 1 µg RA/ml, both preparations inhibited cell growth by over 90%.

[2] = tested on: human monocytic leukemia THP-1 cells; test: Morphological change associated with cellular differentiation; type: cell-based; details: 0.3 µg RA/ml, 72 hr incubation
Procedure: The generally ovate form was retained when the cells were cultured in the absence of any free or liposomal retinoic acid.

[3] = tested on: human histiocytic cell line U-937; test: Cell growth inhibition, 72 hr, 96 well microtiter plate; type: cell-based; details: retinoic acid concentration of about 10 ug/ml
Procedure: as §1
Cells of the human histiocytic cell line U-937 were distributed and cultured under the same conditions as the THP-1 cells in the prior experiment. […] It should be noted that the U-937 cells were almost completely growth-inhibited by L-RA at a retinoic acid concentration of about 10 ug/ml while this amount of free RA inhibited growth less than 50%.

[4] = tested on: THP-1 cells; test: Tumor formation of in vitro treated THP-1 cells injected subcutaneously into mice; type: in vivo; details: cells treated in vitro for 72 hours, injected subcutaneously into male mice
[5] = tested on: tissue transglutaminase; test: Induction of tissue transglutaminase activity in THP-1 cells (marker for monocytic cell differentiation); type: cell-based, human; details: 0.3 µg/ml or 0.6 µg/ml, 24 hr
[6] = tested on: M5076; test: In vitro sensitivity of M5076 cells to retinoic acid; type: cell-based
[7] = tested on: human red blood cells (RBCs); test: In vitro lysis of human erythrocytes (hemoglobin release, optical density at 550 nm); type: cell-based
Procedure: Lysis of human red blood cells (RBCs) was quantitated by measuring the release of hemoglobin in the supernatants by observation of increases in optical density at 550 nanometers (nm), as described previously (Mehta, et al., Biochem. Biophys, Acta., Vol. 770-, pp 230-234 (1984). Free-RA dissolved in dimethyl formamide (DMFA), was added to the RBCs. Results with appropriate solvent controls, empty liposomes, and empty liposomes plus free-drug were also noted. Release of hemoglobin by hypotonic lysis of the same number of human RBCs by water was taken as a 100% positive control, while cells treated with PBS were taken as negative controls.
Preparations of L-RA comprising various lipids were incubated at a concentration of 20 microgram (µg) RA per ml with RBCs in PBS for 4 hr at 37°C.
A further experiment concerning the toxicity over time of free RA and L-RA (DMPC:DMPG-7:3) toward RBC was conducted. Human erythrocytes were incubated at 37°C in PBS with 10 ug/ml free RA or 120 ug/ml L-RA, and RBC lysis monitored over a period of 5 hr. […] When a similar manipulation was performed with L-RA (DMPC:DMPG(7:3)) at a RA concentration of 120 ug/ml, little RBC lysis occurred (e.g., less than 10% after […]).
A study was also conducted concerning the effects upon RBC lysis in 2 hr of free RA and L-RA (DMPC:DMPG(7:3)) at various concentrations. […]

[8] = tested on: CD1 mice; test: in vivo; details: for Number Animals with seizures / Number Animals alive (72 hr): CD1, mouse, in vivo, iv
Procedure: (§2) The acute toxicity of free and liposomal all-trans retinoic acid was studied in CD1 mice. Free all-trans retinoic acid was prepared as an emulsion in normal saline containing 10% DMSO and 2% Tween 80 at a concentration of 3 to 5 mg/ml. Liposomal all-trans retinoic acid was prepared using a lipid:drug ratio of 15:1. The final concentration of all-trans retinoic acid in the liposomal preparation was 3 mg/ml. Empty liposomes of the same lipid composition (DMPC:DMPG 7:3) were also tested at doses equivalent to 80 mg/kg, 100 mg/kg, and 120 mg/kg of liposomal-all trans retinoic acid. Normal saline containing 10% DMSO and 2% Tween 80 was also tested as a control at a dose equivalent to 50 mg/kg of free all-trans retinoic acid. All drugs tested were injected intravenously via tail vein as a single bolus. The injected volumes of free and liposomal-all-trans retinoic acid were the same for each dose.

[9] = in vivo; details: mouse, in vivo, iv
Procedure: as §2

CC1=C(/C=C/C(C)=C/C=C/C(C)=C/C(=O)O)C(C)(C)CCC1 [Free RA, all-trans retinoic acid]
inhibition of THP-1 cell growth [1]: over 90% | morphological appearance of THP-1 cells [2]: more flattened and spread morphological appearance | inhibition at 10 µg/mL [3]: < 50% | tumor development of treated THP-1 cells in mice [4]: failed to develop into tumors | tissue transglutaminase enzymic activity [5]: increased levels of tissue transglutaminase enzymic activity | sensitivity of M5076 cell line in in vitro studies [6]: resistant | RBC lysis over time ([7]; 10 ug/ml, 37°C in PBS, between about 1 hr and about 3 hr): extensively lysed a large majority of the erythrocytes | RBC lysis in 2 hr as a function of concentration ([7]; between about 5 ug RA/ml and about 30 ug RA/ml, 2 hr): linearly increasing RBC lysis | Number Animals with seizures ([8]; 10 mg/kg): 0/6 | Number Animals alive (72 hr) ([8]; 10 mg/kg): 6/6 | Number Animals with seizures ([8]; 20 mg/kg): 6/6 | Number Animals alive (72 hr) ([8]; 20 mg/kg): 5/6 | Number Animals with seizures ([8]; 30 mg/kg): 6/6 | Number Animals alive (72 hr) ([8]; 30 mg/kg): 4/6 | Number Animals with seizures ([8]; 40 mg/kg): 3/3 | Number Animals alive (72 hr) ([8]; 40 mg/kg): 0/3 | Number Animals with seizures ([8]; 50 mg/kg): 3/3 | Number Animals alive (72 hr) ([8]; 50 mg/kg): 0/3 | maximum non-toxic dose ([8]; i.v. single bolus, CD1 mice): 10 mg/kg | LD50 at 72 h [9]: 32 mg/kg
